Experimental data as given in PMC8333053, “Synthesis and biological screening of new thiadiazolopyrimidine-based polycyclic compounds” (Scientific Reports, 2021).
≈ marks a conversion by molar mass, not a printed value.

Columns and labels:
Bacillus cereus UW85 = assay: Antibacterial MIC, two-fold serial dilution; type: cell-based; details: Gram +ve bacteria, LB broth, 37°C, 24 h, visual (no turbidity), read-out: MIC B. cereus
Procedure: (§1) The antimicrobial activity of the synthesized thiadiazolopyrimidine compounds was studied toward diverse pathogenic strains, such as gram-positive bacteria (Staphylococcus aureus ATCC 29213 and Bacillus cereus UW85), gram-negative bacteria (Escherichia coli ATCC 12435 and Pseudomonas aeruginosa ATCC 29260), and fungi (Candida albicans and Aspergillus fumigatus 293). The assessment was performed through the two-fold dilution technique using Ampicillin (antibacterial) and Fluconazole (antifungal) as the reference drugs[28],[29]. The minimal inhibitory concentration (MICs, µg/mL) of the synthesized derivatives for prohibiting microbial growth was determined through the visual detection (no turbidity) technique.
(§2) The synthesized thiadiazolopyrimidine-based compounds were evaluated and adopted for antibacterial and antifungal effectiveness using the approved procedure[38],[39].
(§3) Minimal inhibitory concentrations (MICs) were determined by serial dilution technique using 96-multiwell microtiter plates. The investigated compounds were dissolved in DMSO 100% to prepare stock solutions of 5000 µg/mL. Two-fold serial dilutions of the dissolved compounds were performed in LB broth providing eight different concentrations (1250, 625, 312.5, 156, 78, 39, 19.5 µg/mL). Overnight cultures of microorganisms were diluted to 1 ×10^6 CFU/mL in LB broth, and 20 mL of the diluted cultures were added to the test solutions (50 mL) in the wells (one well per concentration per bacterial strain). The plates were incubated at 37°C for 24 h. MIC was detected visually as the least concentration inhibiting bacterial growth (no turbidity) and the activity of the tested compounds was estimated in comparison to ampicillin.

[1] = system: Escherichia coli ATCC 12435; assay: Antibacterial MIC, two-fold serial dilution; type: cell-based; details: ATCC12435, Gram −ve bacteria, LB broth, 37°C, 24 h, visual (no turbidity)
Procedure: as §1, §2, §3

[2] = system: Pseudomonas aeruginosa ATCC 29260; assay: Antibacterial MIC, two-fold serial dilution; type: cell-based; details: ATCC29260, Gram −ve bacteria, LB broth, 37°C, 24 h, visual (no turbidity), read-out: MIC P. aeruginosa
Procedure: as §1, §2, §3

[3] = system: Staphylococcus aureus ATCC 29213; assay: Antibacterial MIC, two-fold serial dilution; type: cell-based; details: ATCC29213, Gram +ve bacteria, LB broth, 37°C, 24 h, visual (no turbidity), read-out: MIC S. aureus
Procedure: as §1, §2, §3

[4] = system: Aspergillus fumigatus 293; assay: Antifungal MIC, two-fold serial dilution; type: cell-based; details: Fungi, glucose minimal medium, 30°C, 48 h, visual (no turbidity)
Procedure: as §1, §2
(§4) Minimal inhibitory concentrations (MICs) were determined by serial dilution technique using 96-multiwell microtiter plates. The investigated compounds were dissolved in DMSO 100% to prepare stock solutions of 5000 µg/mL. Two-fold serial dilutions of the dissolved compounds were performed in glucose minimal medium providing eight different concentrations (1250, 625, 312.5, 156, 78, 39, 19.5 µg/mL). The microorganisms were diluted to 1 ×10^3 SFU/mL in glucose minimal medium, and 20 µL of the diluted culture was added to the test solutions (50 µL) in the wells (one well per concentration). The plates were incubated at 30°C for 48 h. MIC was detected visually as the least concentration inhibiting fungal growth (no turbidity) and the activity of the tested compounds was estimated in comparison to fluconazole.

Candida albicans = assay: Antifungal MIC, two-fold serial dilution; type: cell-based; details: Fungi, glucose minimal medium, 30°C, 48 h, visual (no turbidity)
Procedure: as §1, §2, §4

Hep-2 = assay: MTT cytotoxicity assay; type: cell-based; details: Homo sapiens, HEp-2, 72 h, 3 days
Procedure: (§5) The cytotoxicity of the prepared tri-and tetra-cyclic thiadiazolopyrimidine compounds were examined toward various cancer cell lines, such as liver and breast cancer (MCF-7), prostate cancer (PC3), laryngeal carcinoma (Hep-2), carcinoma (HepG2), and standard normal fibroblast cells (WI38) using the MTT assay[33] at the National Research Centre (Egypt). The cytotoxicity (Table 3) toward 50% inhibition of the cell viability (IC50 values) was assessed using 5-fluorouracil (5-Fu) as the standard anticancer drug.
(§6) The synthesized compounds were subjected to the MTT cytotoxicity assay on the basis of the cited literature.
(§7) MTT cytotoxicity assay: The technical method of MTT assay depends on the reduction of yellow 3-(4,5-methyl-2-thiazolyl)-2,5-diphenyl-2H-tetrazolium bromide (MTT) into purple formazan product, mainly by mitochondrial reductase activity inside the living cells. The cells used in cytotoxicity assay were cultured in RPMI 1640 medium supplemented with 10% fetal calf serum. Cells suspended in the medium (2×10^4 cells/mL) were plated in 96-well culture plates and incubated at 37 °C in a 5% CO2 incubator for 12 hours. The tested sample (2 μL) was added to the cells (2×10^4) in 96-well plates and cultured at 37 °C for 3 days. The cultured cells were mixed with 20 μL of MTT solution and incubated for 4 hours at 37 °C. The supernatant was carefully removed from each well, the formazan crystals were dissolved after addition of DMSO (100 μL) for each well to form the cellular reduction of MTT. After mixing with a mechanical plate mixer, the absorbance of each well was measured by a microplate reader using a test wavelength of 570 nm. The results were expressed as the IC50 values, which inducing 50% inhibition of cell growth of the treated cells when compared to the growth of control cells.

HepG2 = assay: MTT cytotoxicity assay; type: cell-based; details: Homo sapiens, HepG2, 72 h, 3 days
Procedure: as §5, §6, §7

MCF-7 = assay: MTT cytotoxicity assay; type: cell-based; details: Homo sapiens, MCF7, 72 h, 3 days
Procedure: as §5, §6, §7

PC3 = assay: MTT cytotoxicity assay; type: cell-based; details: Homo sapiens, PC-3, 72 h, 3 days
Procedure: as §5, §6, §7

| Structure (SMILES) | MIC (Bacillus cereus UW85) [µg/mL] | MIC [1] [µg/mL] | MIC [2] [µg/mL] | MIC [3] [µg/mL] | MIC [4] [µg/mL] | MIC (Candida albicans) [µg/mL] | IC50 (Hep-2) [µM] | IC50 (HepG2) [µM] | IC50 (MCF-7) [µM] | IC50 (PC3) [µM] | melting point [°C] |
| --- | --- | --- | --- | --- | --- | --- | --- | --- | --- | --- | --- |
| Cc1cc2nc3c(c(N)n2n1)c(=O)nc1scnn13 [Compound 13, 6-Amino-9-methyl-5H-pyrazolo[1′,5′:1,2]pyrimido[5,4-e][1,3,4]thiadiazolo[3,2-a]pyrimidin-5-one] | > 1250 | 1250 (≈ 4.57 mM) | > 1250 | 1250 (≈ 4.57 mM) | > 1250 | 1250 (≈ 4.57 mM) | 30.2 ± 0.59 | 28.6 ± 0.41 | 57.6 ± 1.4 | 35.6 ± 0.88 | 304 to 306 |
| CC(=O)C1=C(C)OC(N)=C2C(=O)N=C3SC=NN3C12 (stereo not drawn) [Compound 8a, 9-Acetyl-6-amino-8-methyl-5H,9aH-pyrano[3,4-e][1,3,4]thiadiazolo[3,2-a]pyrimidin-5-one] | 625 (≈ 2.25 mM) | 1250 (≈ 4.49 mM) | 1250 (≈ 4.49 mM) | 312 (≈ 1.12 mM) | > 1250 | 312 (≈ 1.12 mM) | 22.61 ± 0.21 | 37.12 ± 0.23 | 33.42 ± 0.23 | 34.4 ± 0.64 | – |
| Nc1c2c(=O)nc3scnn3c2nc2nncn12 [Compound 12, 6-Amino-5H-[1,2,4]triazolo[4′,3′:1,2]pyrimido[5,4-e][1,3,4]thiadiazolo[3,2-a]pyrimidin-5-one] | > 1250 | > 1250 | > 1250 | 625 (≈ 2.4 mM) | > 1250 | > 1250 | 34.1 ± 0.97 | 44.3 ± 1.35 | 36.92 ± 0.29 | 47.4 ± 0.89 | 290 to 291 |
| Cc1n[nH]c2c1C1C(=C(N)O2)C(=O)N=C2SC=NN21 (stereo not drawn) [Compound 10a, 6-Amino-10-methyl-8,10b-dihydro-5H-pyrazolo[4′,3′:5,6]pyrano[3,4-e][1,3,4]thiadiazolo[3,2-a]pyrimidin-5-one] | 625 (≈ 2.26 mM) | 1250 (≈ 4.52 mM) | 312 (≈ 1.13 mM) | 625 (≈ 2.26 mM) | > 1250 | 625 (≈ 2.26 mM) | 34 ± 0.46 | 42 ± 1.24 | 24.2 ± 0.52 | 40.11 ± 0.36 | – |
| Cc1ccc(N=Nc2c(N)nn3c(N)c4c(=O)nc5scnn5c4nc23)cc1 [Compound 16a, 6,9-Diamino-10-(4-methylphenylazo)-5H-pyrazolo[1′,5′:1,2]pyrimido[5,4-e][1,3,4]thiadiazolo[3,2-a]pyrimidin-5-one] | > 1250 | 78 (≈ 0.199 mM) | 156 (≈ 0.398 mM) | 1250 (≈ 3.19 mM) | > 1250 | > 1250 | 32.7 ± 0.36 | 37.6 ± 1.26 | 7.53 ± 0.08 | 44.2 ± 0.94 | > 320 |
| Cc1ccc(N=Nc2c(O)nn3c(N)c4c(=O)nc5scnn5c4nc23)cc1 [Compound 17a, 6-Amino-9-hydroxy-10-(4-methylphenylazo)-5H-pyrazolo[1′,5′:1,2]pyrimido[5,4-e][1,3,4]thiadiazolo[3,2-a]pyrimidin-5-one] | 625 (≈ 1.59 mM) | 156 (≈ 0.397 mM) | 156 (≈ 0.397 mM) | 625 (≈ 1.59 mM) | 1250 (≈ 3.18 mM) | > 1250 | 29.58 ± 0.15 | 38.27 ± 0.17 | 9.36 ± 0.23 | 39.4 ± 2.01 | 264 to 265 |
| N#Cc1c(N)nc(N)c2c(=O)nc3scnn3c12 [Compound 6, 6,8-Diamino-9-cyano-5-oxo-5H-pyrido[3,4-e][1,3,4]thiadiazolo[3,2-a]pyrimidine] | 1250 (≈ 4.82 mM) | > 1250 | 1250 (≈ 4.82 mM) | > 1250 | > 1250 | > 1250 | 57.6 ± 1.72 | 62.2 ± 1.07 | 49.6 ± 1.25 | 66.3 ± 2.49 | 302 to 303 |
| N#Cc1cn2ncsc2nc1=O [Compound 3, 6-cyano-7-oxo-7H-[1,3,4]thiadiazolo[3,2-a]pyrimidine] | > 1250 | > 1250 | > 1250 | 1250 (≈ 7.02 mM) | > 1250 | > 1250 | 87.5 ± 2.35 | 82.3 ± 2.19 | 78 ± 1.37 | 92.8 ± 3.48 | 264 to 265 |
| COc1ccc(N=Nc2c(N)nn3c(N)c4c(=O)nc5scnn5c4nc23)cc1 [Compound 16b, 6,9-Diamino-10-(4-methoxyphenylazo)-5H-pyrazolo[1′,5′:1,2]pyrimido[5,4-e][1,3,4]thiadiazolo[3,2-a]pyrimidin-5-one] | > 1250 | 19.5 (≈ 0.0477 mM) | 78 (≈ 0.191 mM) | 625 (≈ 1.53 mM) | > 1250 | > 1250 | 38.2 ± 0.57 | 42.3 ± 0.75 | 5.69 ± 0.39 | 47.9 ± 1.48 | > 320 |
| CCOC(=O)c1c(N)nc(N)c2c(=O)nc3scnn3c12 [Compound 7, Ethyl 6,8-diamino-5-oxo-5H-pyrido[3,4-e][1,3,4]thiadiazolo[3,2-a]pyrimidine-9-carboxylate] | 1250 (≈ 4.08 mM) | 625 (≈ 2.04 mM) | 1250 (≈ 4.08 mM) | 1250 (≈ 4.08 mM) | > 1250 | > 1250 | 34.2 ± 0.93 | 36.73 ± 0.17 | 39.8 ± 0.68 | 61.8 ± 1.35 | 278 to 280 |
| N#CC1=C(c2ccccc2)OC(N)=C2C(=O)N=C3SC=NN3C12 (stereo not drawn) [Compound 9b, 6-Amino-9-cyano-5-oxo-8-phenyl-5H,9aH-pyrano[3,4-e][1,3,4]thiadiazolo[3,2-a]pyrimidine] | 156 (≈ 0.482 mM) | 625 (≈ 1.93 mM) | 625 (≈ 1.93 mM) | 312 (≈ 0.966 mM) | > 1250 | 312 (≈ 0.966 mM) | 11.7 ± 0.36 | 26.78 ± 0.18 | 12.8 ± 0.26 | 38.4 ± 0.89 | 258 to 260 |
| CC1=C(C(=O)c2ccccc2)C2C(=C(N)O1)C(=O)N=C1SC=NN12 (stereo not drawn) [Compound 8b, 6-Amino-9-benzoyl-8-methyl-5H,9aH-pyrano[3,4-e][1,3,4]thiadiazolo[3,2-a]pyrimidin-5-one] | 312 (≈ 0.918 mM) | 1250 (≈ 3.67 mM) | 312 (≈ 0.918 mM) | 156 (≈ 0.458 mM) | 1250 (≈ 3.67 mM) | 156 (≈ 0.458 mM) | 14.7 ± 0.43 | 21.62 ± 0.14 | 14.7 ± 0.16 | 30.6 ± 0.57 | 239 to 241 |
| Nc1c2c(=O)nc3scnn3c2nc2nnnn12 [Compound 11, 6-Amino-5H-[1,3,4]thiadiazolo[2′,3′:2,3]pyrimido[4,5-d]tetrazolo[1,5-a]pyrimidin-5-one] | 1250 (≈ 4.79 mM) | > 1250 | 1250 (≈ 4.79 mM) | 312 (≈ 1.2 mM) | > 1250 | 1250 (≈ 4.79 mM) | 38.8 ± 0.74 | 42.2 ± 1.17 | 31.8 ± 0.67 | 38.1 ± 0.49 | 274 to 275 |
